Experimental data published in patent US6737383B1, “Herbicidal oxadiazolidines” (priority 1999, dated 2004).

Columns and labels:
bedstraw = test: Test B pre/postemergence bedstraw; format: in vivo, Galium aparine; conditions: Preemergence
How it was run: (§1)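 Response is a visual 0-to-10 score relative to untreated plants, where 0 means no effect and 10 means complete control, taken twelve to sixteen days after application. Treatments went onto soil at planting and onto foliage of 1- to 4-leaf plants, using a surfactant-containing non-phytotoxic solvent.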

blackgrass = test: Test B pre/postemergence blackgrass; format: in vivo, Alopecurus myosuroides
How it was run: as §1

surinam grass = test: Test B pre/postemergence surinam grass; format: in vivo, Brachiaria decumbens
How it was run: as §1

cocklebur = test: Test B pre/postemergence cocklebur; format: in vivo, Xanthium strumarium
How it was run: as §1

corn = test: Test B pre/postemergence corn; format: in vivo, Zea mays
How it was run: as §1

crabgrass = test: Test B pre/postemergence crabgrass; format: in vivo, Digitaria sanguinalis
How it was run: as §1

giant foxtail = test: Test B pre/postemergence giant foxtail; format: in vivo, Setaria faberii
How it was run: as §1

morningglory = test: Test B pre/postemergence morningglory; format: in vivo, Ipomoea hederacea
How it was run: as §1

pigweed = test: Test B pre/postemergence pigweed; format: in vivo, Amaranthus retroflexus
How it was run: as §1

rape = test: Test B pre/postemergence rape; format: in vivo, Brassica napus
How it was run: as §1

soybean = test: Test B pre/postemergence soybean; format: in vivo, Glycine max
How it was run: as §1

sugar beet = test: Test B pre/postemergence sugar beet; format: in vivo, Beta vulgaris
How it was run: as §1

velvetleaf = test: Test B pre/postemergence velvetleaf; format: in vivo, Abutilon theophrasti
How it was run: as §1

wheat = test: Test B pre/postemergence wheat; format: in vivo, Triticum aestivum
How it was run: as §1

wild oat = test: Test B pre/postemergence wild oat; format: in vivo, Avena fatua
How it was run: as §1

purple nutsedge = test: Test B pre/postemergence purple nutsedge; format: in vivo, Cyperus rotundus
How it was run: as §1

[1] = Postemergence, Rate 125 g/ha, scale 0 to 10, 0 is no effect, 10 is complete control
[2] = Postemergence, Rate 500 g/ha, scale 0 to 10, 0 is no effect, 10 is complete control
[3] = Preemergence, Rate 62 g/ha, scale 0 to 10 (0 no effect, 10 complete control)
[4] = Preemergence, Rate 125 g/ha, scale 0 to 10, 0 is no effect, 10 is complete control
[5] = Preemergence, Rate 500 g/ha, scale of 0 to 10 where 0 is no effect and 10 is complete control
[6] = Postemergence, Rate 62 g/ha, scale of 0 to 10, 0 is no effect, 10 is complete control
[7] = Rate 250 g/ha, Postemergence, scale of 0 to 10 where 0 is no effect and 10 is complete control

COCn1c(=O)on(C(=O)N(c2ccc(Cl)cc2)C(C)C)c1=O [Compound 533]
Bedstraw plant response rating (bedstraw; Rate 62 g/ha, scale 0 to 10 (0 no effect, 10 complete control)): 0 | Bedstraw plant response rating (bedstraw; Rate 125 g/ha, scale 0 to 10, 0 is no effect, 10 is complete control): 0 | Bedstraw plant response rating (0 to 10 scale) (bedstraw; Rate 250 g/ha): 0 | Bedstraw plant response rating (bedstraw; Rate 500 g/ha, scale of 0 to 10 where 0 is no effect and 10 is complete control): 0 | Blackgrass plant response rating (blackgrass; [1]): 2 | Plant response rating, Blackgrass (blackgrass; [2]): 7 | Blackgrass plant response rating (blackgrass; [3]): 4 | Blackgrass plant response rating (blackgrass; [4]): 8 | Blackgrass plant response rating (0 to 10 scale) (blackgrass; Preemergence, Rate 250 g/ha): 9 | Blackgrass plant response rating (blackgrass; [5]): 9 | B. signalgrass plant response rating (surinam grass; [6]): 0 | B. signalgrass plant response rating (surinam grass; [1]): 0 | Plant response rating, B. signalgrass (surinam grass; [2]): 4 | B. signalgrass plant response rating (surinam grass; [3]): 2 | B. signalgrass plant response rating (surinam grass; [4]): 3 | B. signalgrass plant response rating (0 to 10 scale, 0 is no effect, 10 is complete control) (surinam grass; Preemergence, Rate 250 g/ha): 9 | B. signalgrass plant response rating (surinam grass; [5]): 9 | Cocklebur plant response rating (cocklebur; [6]): 2 | Cocklebur plant response rating (cocklebur; [1]): 2 | Plant response rating, Cocklebur (cocklebur; [2]): 4 | Cocklebur plant response rating (cocklebur; [3]): 0 | Cocklebur plant response rating (cocklebur; [4]): 0 | Cocklebur plant response rating (0 to 10 scale) (cocklebur; Preemergence, Rate 250 g/ha): 0 | Cocklebur plant response rating (cocklebur; [5]): 0 | Plant response rating, Cocklebur (cocklebur; [7]): 2 | Corn plant response rating (corn; [6]): 0 | Corn plant response rating (corn; [1]): 0 | Plant response rating, Corn (corn; [2]): 0 | Corn plant response rating (corn; [3]): 0 | Corn plant response rating (corn; [4]): 0 | Corn plant response rating (0 to 10 scale) (corn; Preemergence, Rate 250 g/ha): 0 | Corn plant response rating (corn; [5]): 6 | Plant response rating, Corn (corn; [7]): 0 | Crabgrass plant response rating (crabgrass; [6]): 3 | Crabgrass plant response rating (crabgrass; [1]): 8 | Plant response rating, Crabgrass (crabgrass; [2]): 9 | Crabgrass plant response rating (crabgrass; [3]): 9 | Crabgrass plant response rating (crabgrass; [4]): 10 | Crabgrass plant response rating (0 to 10 scale) (crabgrass; Preemergence, Rate 250 g/ha): 10 | Crabgrass plant response rating (crabgrass; [5]): 10 | Plant response rating, Crabgrass (crabgrass; [7]): 9 | Giant foxtail plant response rating (giant foxtail; [6]): 8 | Giant foxtail plant response rating (giant foxtail; [1]): 8 | Plant response rating, Giant foxtail (giant foxtail; [2]): 9 | Giant foxtail plant response rating (giant foxtail; [3]): 9 | Giant foxtail plant response rating (giant foxtail; [4]): 10 | Giant foxtail plant response rating (0 to 10 scale) (giant foxtail; Preemergence, Rate 250 g/ha): 10 | Giant foxtail plant response rating (giant foxtail; [5]): 10 | Plant response rating, Giant foxtail (giant foxtail; [7]): 9 | Morningglory plant response rating (morningglory; [6]): 4 | Morningglory plant response rating (morningglory; [1]): 4 | Plant response rating, Morningglory (morningglory; [2]): 7 | Morningglory plant response rating (morningglory; [3]): 0 | Morningglory plant response rating (morningglory; [4]): 0 | Morningglory plant response rating (0 to 10 scale) (morningglory; Preemergence, Rate 250 g/ha): 0 | Morningglory plant response rating (morningglory; [5]): 0 | Plant response rating, Morningglory (morningglory; [7]): 7 | Redroot pigweed plant response rating (pigweed; [6]): 9 | Redroot pigweed plant response rating (pigweed; [1]): 9 | Plant response rating, Redroot pigweed (pigweed; [2]): 9 | Redroot pigweed plant response rating (pigweed; [3]): 8 | Redroot pigweed plant response rating (pigweed; [4]): 8 | Redroot pigweed plant response rating (0 to 10 scale) (pigweed; Preemergence, Rate 250 g/ha): 8 | Redroot pigweed plant response rating (pigweed; [5]): 8 | Rape plant response rating (rape; [6]): 0 | Rape plant response rating (rape; [1]): 0 | Plant response rating, Rape (rape; [2]): 4 | Rape plant response rating (rape; [3]): 0 | Rape plant response rating (rape; [4]): 0 | Rape plant response rating (0 to 10 scale) (rape; Preemergence, Rate 250 g/ha): 7 | Rape plant response rating (rape; [5]): 7 | Soybean plant response rating (soybean; [6]): 4 | Soybean plant response rating (soybean; [1]): 4 | Plant response rating, Soybean (soybean; [2]): 4 | Soybean plant response rating (soybean; [3]): 0 | Soybean plant response rating (soybean; [4]): 0 | Soybean plant response rating (0 to 10 scale) (soybean; Preemergence, Rate 250 g/ha): 0 | Soybean plant response rating (soybean; [5]): 0 | Plant response rating, Soybean (soybean; [7]): 4 | Sugarbeets plant response rating (sugar beet; [6]): 0 | Sugarbeets plant response rating (sugar beet; [1]): 0 | Plant response rating, Sugarbeets (sugar beet; [2]): 4 | Sugarbeets plant response rating (sugar beet; [3]): 3 | Sugarbeets plant response rating (sugar beet; [4]): 5 | Sugarbeets plant response rating (0 to 10 scale) (sugar beet; Preemergence, Rate 250 g/ha): 7 | Sugarbeets plant response rating (sugar beet; [5]): 7 | Velvetleaf plant response rating (velvetleaf; [6]): 0 | Velvetleaf plant response rating (velvetleaf; [1]): 4 | Plant response rating, Velvetleaf (velvetleaf; [2]): 8 | Velvetleaf plant response rating (velvetleaf; [3]): 0 | Velvetleaf plant response rating (velvetleaf; [4]): 0 | Velvetleaf plant response rating (0 to 10 scale) (velvetleaf; Preemergence, Rate 250 g/ha): 5 | Velvetleaf plant response rating (velvetleaf; [5]): 5 | Plant response rating, Velvetleaf (velvetleaf; [7]): 4 | Wheat plant response rating (wheat; [6]): 0 | Wheat plant response rating (wheat; [1]): 0 | Plant response rating, Wheat (wheat; [2]): 2 | Wheat plant response rating (wheat; [3]): 0 | Wheat plant response rating (wheat; [4]): 0 | Wheat plant response rating (0 to 10 scale) (wheat; Preemergence, Rate 250 g/ha): 0 | Wheat plant response rating (wheat; [5]): 0 | Wild oats plant response rating (wild oat; [6]): 0 | Wild oats plant response rating (wild oat; [1]): 0 | Plant response rating, Wild oats (wild oat; [2]): 0 | Wild oats plant response rating (wild oat; [3]): 0 | Wild oats plant response rating (wild oat; [4]): 0 | Wild oats plant response rating (0 to 10 scale) (wild oat; Preemergence, Rate 250 g/ha): 9 | Wild oats plant response rating (wild oat; [5]): 9 | Nutsedge plant response rating (purple nutsedge; [6]): 0 | Nutsedge plant response rating (purple nutsedge; [1]): 0 | Plant response rating, Nutsedge (purple nutsedge; [2]): 0 | Nutsedge plant response rating (purple nutsedge; [3]): 0 | Nutsedge plant response rating (purple nutsedge; [4]): 0 | Nutsedge plant response rating (purple nutsedge; [5]): 0 | Plant response rating, Nutsedge (purple nutsedge; [7]): 0
